Laboratory results: publication PMC8273887 (Journal of Medicinal Chemistry, 2021)

How the values were obtained:
SH-SY5Y cells = test: Antiapoptotic assay (etoposide-induced cell death, caspase-3/7 activity); assay type: cell-based, human; settings: etoposide 10 μM and peptide 10 μM added at the same time, caspase-3/7 activity after 6 h, n ≥ 3 independent experiments
Description: (A) Cell death was induced with etoposide (10 μM), and cells were treated with 10 μM of TFF3. Etoposide and TFF3 were added at the same time. Caspase-3/7 activity was measured after 6 h. […] Z-DEVD-FMK (50 μM; caspase-3 inhibitor) was used as the positive control. E: etoposide, E + C3I: etoposide + caspase-3 inhibitor. One-way analysis of variance (ANOVA) followed by Dunnett correction was performed to assess differences between treated cells and etoposide only. *p < 0.05, **p < 0.01.
SH-SY5Y cells were seeded (13–15 × 10^3 cells/well) in 96-well microplates in DMEM with 10% (v/v) fetal calf serum (FCS; Gibco), 2 mM L-glutamine, and 100 units/mL penicillin/streptomycin. The media was replaced with low riboflavin, complete Ham’s F12 medium with 10% (v/v) fetal calf serum, 2 mM L-glutamine, and 100 units/mL penicillin/streptomycin before the live-cell imaging. Cells were treated with the etoposide or the caspase-3 inhibitor or TFF3(C^57Acm) or TFF3 homodimer in the presence of IncuCyte caspase-3/7 green apoptosis reagent. Data were acquired using an IncuCyte ZOOM instrument with standard scan type setting (4 images per well) every 2 h for 48 h.

human erythrocytes = test: Hemolysis analysis; assay type: cell-based; settings: 1 h, 37 °C, absorbance 405 nm, 0.2–25 μM final concentration, two independent experiments
Description: Considering the therapeutic potential of TFF3, it was important to determine any cytotoxic and hemolytic effects early on to avoid problems in later stages of drug development. We therefore assessed cytotoxicity on HEK-293 cells and hemolytic effects in human erythrocytes. We treated the cells with TFF3(C^57Acm) and TFF3 homodimer and used resazurin, a blue dye that produces strong fluorescence when reduced by living cells, as the readout of the number of viable cells.[60] In the hemolytic assay, we evaluated hemoglobin release, an indicator of erythrocyte lysis, upon exposure to the peptides.
Monomeric and homodimeric TFF3 were serially diluted twofold in 0.9% NaCl and seeded (25 μL) in a 384-well polypropylene plate (0.2–25 μM final concentration). […] The cells were counted using a Neubauer hemocytometer and then diluted to 1 × 10^8/mL in 0.9% NaCl. […] Following incubation, the plates were centrifuged at 1000g for 10 min to pellet cells and debris and then 25 μL of the supernatant was transferred into a 384-well flat-bottom PS plate and absorbance (Abs) was read at 405 nm using a Tecan M1000 Pro monochromator plate reader. Percent hemolysis was calculated using the following equation: Hemolysis (%) = (Abssample – Absnegative/Abspositive – Absnegative) × 100. […]

LINGO2 = molecular target: T1, LINGO2 (Homo sapiens, UniProt Q7L985); test: BRET assay of LINGO2 dimerization in HEK-293 cells; assay type: cell-based; settings: HEK-293 coexpressing LINGO2-YFP and LINGO2-Rluc; 0.1–10 μM peptide, 20 min incubation; coelenterazine 5 μM; n = 4
T1 construct: expressed in transfected cells; host or cells: HEK-293, transient transfection by the calcium phosphate method
T1 sequence (Q7L985 28-606) 1: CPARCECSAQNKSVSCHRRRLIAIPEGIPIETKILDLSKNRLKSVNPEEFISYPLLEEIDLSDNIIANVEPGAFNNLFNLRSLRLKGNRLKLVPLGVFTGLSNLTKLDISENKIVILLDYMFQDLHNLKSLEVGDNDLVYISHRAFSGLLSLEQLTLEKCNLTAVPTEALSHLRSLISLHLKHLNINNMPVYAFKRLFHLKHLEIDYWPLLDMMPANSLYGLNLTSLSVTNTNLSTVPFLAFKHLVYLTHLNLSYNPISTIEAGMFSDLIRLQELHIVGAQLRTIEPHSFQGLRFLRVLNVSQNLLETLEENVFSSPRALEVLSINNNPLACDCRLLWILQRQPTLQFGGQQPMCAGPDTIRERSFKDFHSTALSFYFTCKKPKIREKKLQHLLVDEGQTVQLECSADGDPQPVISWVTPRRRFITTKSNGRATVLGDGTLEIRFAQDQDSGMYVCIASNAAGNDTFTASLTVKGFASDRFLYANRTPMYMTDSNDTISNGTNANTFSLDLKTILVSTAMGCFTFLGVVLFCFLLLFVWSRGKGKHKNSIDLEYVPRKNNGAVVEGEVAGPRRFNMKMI
T1 sequence (Q7L985 28-606) 2: T1 sequence (Q7L985 28-606) 1
Description: LINGO2 has also been put forward as a potential TFF3 receptor.[38] We thus evaluated whether TFF3(C^57Acm) or TFF3 homodimer could disturb LINGO2 dimerization via a bioluminescence resonance energy transfer (BRET) assay. This method allows the study of protein interactions using energy transfer between a light-emitting enzyme and a fluorescent acceptor protein.[65] LINGO2 fused with Renilla luciferase (Rluc; protein donor) or yellow fluorescent protein (YFP; protein acceptor) were co-expressed in HEK-293 cells and BRET signal detected after adding the luminescent substrate coelenterazine. […] We then evaluated whether the TFF3 constructs could promote changes of this basal BRET signal by inducing conformational change within the dimers and/or change the dimerization state of LINGO2.
HEK-293 cells were cultured with 10% FBS at 37 °C and 5% CO2 in DMEM for 72–96 h. […] Then, total luminescence was measured by following coelenterazine addition (final concentration 5 μM). BRET signal was measured in four repeats and calculated by determining the emission ratio at 530/480 nm on cells coexpressing donor and acceptor and by subtracting the emission background BRET signal ratio (530/480 nm) of cells expressing only donor protein, then multiplying by 1,000 to obtain results in millBRET units (mBU).

Compound: CC[C@H](C)[C@@H]1NC(=O)[C@H](CCCNC(=N)N)NC(=O)[C@H](CO)NC(=O)[C@H](CC(=O)O)NC(=O)[C@H](Cc2ccccc2)NC(=O)[C@@H]2CSSC[C@H](NC(=O)[C@H](CCC(N)=O)NC(=O)[C@H](CC(N)=O)NC(=O)[C@H](C)NC(=O)[C@H](CO)NC(=O)[C@H](CC(C)C)NC(=O)CNC(=O)[C@@H](NC(=O)[C@H](Cc3ccc(O)cc3)NC(=O)[C@H](CCC(=O)O)NC(=O)[C@@H](N)CCC(=O)O)C(C)C)C(=O)N[C@@H](C)C(=O)N[C@@H](C(C)C)C(=O)N3CCC[C@H]3C(=O)N[C@@H](C)C(=O)N[C@@H](CCCCN)C(=O)N[C@@H](CC(=O)O)C(=O)N[C@@H](CCCNC(=N)N)C(=O)N[C@@H](C(C)C)C(=O)N[C@@H](CC(=O)O)C(=O)N[C@H]3CSSC[C@H](NC(=O)CNC(=O)[C@H](CCCNC(=N)N)NC(=O)[C@H](CC(N)=O)NC(=O)[C@H](CC(N)=O)NC(=O)[C@H](CSSC[C@@H](C(=O)N[C@@H](Cc4ccccc4)C(=O)N[C@@H](CCCCN)C(=O)N4CCC[C@H]4C(=O)N[C@@H](CC(C)C)C(=O)N[C@@H](CCC(N)=O)C(=O)N[C@@H](CCC(=O)O)C(=O)N[C@@H](C)C(=O)N[C@@H](CCC(=O)O)C(=O)N[C@@H](CSCNC(C)=O)C(=O)N[C@H](C(=O)N[C@@H](Cc4ccccc4)C(=O)O)[C@@H](C)O)NC(=O)[C@H](Cc4c[nH]c5ccccc45)NC(=O)[C@@H]4CCCN4C(=O)[C@H](C(C)C)NC(=O)CNC(=O)[C@@H]4CCCN4C1=O)NC(=O)[C@H](CCC(=O)O)NC(=O)[C@H](CCCCN)NC(=O)[C@@H]1CCCN1C(=O)[C@H]([C@@H](C)O)NC(=O)[C@H](C(C)C)NC(=O)[C@H](Cc1c[nH]cn1)NC(=O)[C@@H]1CCCN1C(=O)[C@H](Cc1ccc(O)cc1)NC(=O)CNC3=O)C(=O)N2 [TFF3(C^57Acm)]
- reduction of etoposide-induced cell death (caspase-3/7 active objects) (SH-SY5Y cells): statistically significant (p < 0.05) reduction in cell death
- concentration up to which no hemolytic effect was displayed (human erythrocytes): > 25 µM
- modification of LINGO2 BRET signal (LINGO2): no statistically significant (p > 0.05) modification of BRET signal
